Where two headings read alike, the source gives them in different places.
Target: T1, dihydrolipoamide acyltransferase (DlaT) (Mycobacterium tuberculosis, UniProt P9WIS7)
T1 sequence (P9WIS7 1-553): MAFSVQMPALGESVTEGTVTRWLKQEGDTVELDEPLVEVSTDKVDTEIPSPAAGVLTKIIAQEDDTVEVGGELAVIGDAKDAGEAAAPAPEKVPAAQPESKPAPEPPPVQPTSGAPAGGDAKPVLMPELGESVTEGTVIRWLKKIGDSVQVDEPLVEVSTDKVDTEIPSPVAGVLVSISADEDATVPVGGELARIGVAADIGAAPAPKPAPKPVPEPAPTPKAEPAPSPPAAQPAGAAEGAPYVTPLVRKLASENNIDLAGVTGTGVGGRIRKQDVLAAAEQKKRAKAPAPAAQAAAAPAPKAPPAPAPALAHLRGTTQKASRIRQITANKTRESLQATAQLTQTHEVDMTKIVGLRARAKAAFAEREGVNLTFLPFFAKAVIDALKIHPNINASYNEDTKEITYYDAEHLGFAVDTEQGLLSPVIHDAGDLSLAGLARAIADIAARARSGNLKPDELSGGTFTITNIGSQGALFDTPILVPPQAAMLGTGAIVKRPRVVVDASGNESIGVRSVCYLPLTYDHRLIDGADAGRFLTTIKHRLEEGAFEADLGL
Experiment: DlaT inhibition (Dlat IC50); DTNB peroxidase assay with Lpd, DlaT and AhpD
Type: biochemical

[1] = Table 1, Compounds A1 to A294, read-out: Dlat IC50 category

SMILES	IC50 (Dlat IC50 category) [µM]	IC50 [1] [µM]	also measured
Cc1ccccc1-c1ccc(C=C2SC(=S)N(Nc3ccccc3C(=O)O)C2=O)o1 [Compound D51, 2-{4-oxo-2-thioxo-5-[1-(5-o-tolyl-furan-2-yl)-methylidene]-thiazolidin-3-ylamino}-benzoic acid]	< 10		
O=C(O)c1cc(N2C(=O)C(=Cc3ccc(-c4ccc(Cl)c(Cl)c4)o3)SC2=S)ccc1Cl [Compound A108]		< 10	
Cc1ccc(-c2ccc(C=C3SC(=S)N(Nc4ccccc4C(=O)O)C3=O)o2)c(F)c1 [Compound D11, 2-{5-[1-[5-(2-fluoro-4-methyl-phenyl)-furan-2-yl]-methylidene]-4-oxo-2-thioxo-thiazolidin-3-ylamino}-benzoic acid]	< 10		
Cc1ccccc1-c1ccc(C=C2SC(=S)N(C3CCC(C(=O)O)CC3)C2=O)o1 (centres unmarked) [Compound C61, 4-{4-oxo-2-thioxo-5-[1-(5-o-tolyl-furan-2-yl)-methylidene]-thiazolidin-3-yl}-cyclohexanecarboxylic acid]	11 to 40		
Cc1ccccc1-c1ccc(C=C2SC(=S)N(C(C(=O)O)C(C)C)C2=O)o1 (centres unmarked) [Compound B106]	11 to 40		
O=C(O)C1CCCC(N2C(=O)C(=Cc3ccc(-c4ccc(Cc5ccccc5)cc4)o3)SC2=S)C1 (centres unmarked) [Compound C6, 3-{5-[1-[5-(4-benzyl-phenyl)-furan-2-yl]-methylidene]-4-oxo-2-thioxo-thiazolidin-3-yl}-cyclohexanecarboxylic acid]	< 10		
O=C(O)c1cccc(N2C(=O)C(=Cc3ccc(-c4ccccc4O)o3)SC2=S)c1 [Compound A162]		< 10	
CCc1ccc(-c2ccc(C=C3SC(=S)N(c4cc(C(=O)O)cc(C(=O)O)c4)C3=O)o2)cc1 [Compound A233]		< 10	
O=C(O)c1cc(N2C(=O)C(=Cc3ccc(-c4ccccc4F)o3)SC2=S)cc(C(F)(F)F)c1 [Compound A222]		< 10	
O=C(O)c1cc(N2C(=O)C(=Cc3ccc(-c4ccc(Cl)cc4)o3)SC2=S)ccc1F [Compound A258]		< 10	
O=C(O)c1cccc(N2C(=O)C(=Cc3ccc(-c4cccc(Cl)c4Cl)o3)SC2=S)c1 [Compound A117]		< 10	
CC(C)(c1ccccc1)c1ccc(-c2ccc(C=C3SC(=S)N(c4cc(C(=O)O)ccc4Cl)C3=O)o2)cc1 [Compound A96]		< 10	
CN(C)c1ccc(-c2ccc(C=C3SC(=S)N(c4cccc(C(=O)O)c4)C3=O)o2)cc1 [Compound A116]		11 to 40	
O=C(O)c1ccc(N2C(=O)C(=Cc3ccc(-c4cccc(C(F)(F)F)c4)o3)SC2=S)cc1 [Compound A10]		11 to 40	
NS(=O)(=O)c1ccc(-c2ccc(C=C3SC(=S)N(c4cccc(C(=O)O)c4)C3=O)o2)cc1 [Compound A288]		11 to 40	
NS(=O)(=O)c1ccc(N2C(=O)C(=Cc3ccc(-c4ccc(Cl)c(Cl)c4)o3)SC2=S)cc1 [Compound A9]		11 to 40	
Cc1ccc(-c2ccc(C=C3SC(=S)N(C4CCCC(C(=O)O)C4)C3=O)o2)c(C)c1 (centres unmarked) [Compound C8, 3-{5-[1-[5-(2,4-dimethyl-phenyl)-furan-2-yl]-methylidene]-4-oxo-2-thioxo-thiazolidin-3-yl}-cyclohexanecarboxylic acid]	< 10		
CC(C(=O)O)N1C(=O)C(=Cc2ccc(-c3ccccc3C(F)(F)F)o2)SC1=S (centres unmarked) [Compound B99]	11 to 40		
CC(C(=O)O)N1C(=O)C(=Cc2ccc(-c3ccc(Cl)cc3[N+](=O)[O-])o2)SC1=S (centres unmarked) [Compound B114]	11 to 40		
COc1ccc(-c2ccc(C=C3SC(=S)N(C4CCCC(C(=O)O)C4)C3=O)o2)cc1F (centres unmarked) [Compound C26, 3-{5-[1-[5-(3-fluoro-4-methoxy-phenyl)-furan-2-yl]-methylidene]-4-oxo-2-thioxo-thiazolidin-3-yl}-cyclohexanecarboxylic acid]	< 10		
O=C(O)c1cncc(N2C(=O)C(=Cc3ccc(-c4cccc(C(F)(F)F)c4)o3)SC2=S)c1 [Compound M2]			IC50 (Dlat IC50 category, Table 13, Compounds M1 to M4): < 10 µM
O=C(O)C1CCCC(N2C(=O)C(=Cc3ccc(-c4ccccc4OCc4ccccc4)o3)SC2=S)C1 (centres unmarked) [Compound C27, 3-{5-[1-[5-(2-benzyloxy-phenyl)-furan-2-yl]-methylidene]-4-oxo-2-thioxo-thiazolidin-3-yl}-cyclohexanecarboxylic acid]	< 10		
COc1cc(F)ccc1-c1ccc(C=C2SC(=S)N(c3cc(C(=O)O)ccc3F)C2=O)o1 [Compound A176]		< 10	
O=C(O)C(c1ccccc1)N1C(=O)C(=Cc2cccc(-c3ccccc3Cl)n2)SC1=S (centres unmarked) [Compound B8]	11 to 40		
O=C(O)c1cccc(N2C(=O)C(=Cc3ccc(-c4ccccc4F)o3)SC2=S)c1 [Compound A138]		11 to 40	
COc1ccc(C(=O)O)cc1N1C(=O)C(=Cc2ccc(-c3ccccc3Cl)o2)SC1=S [Compound A74]		< 10	
N#Cc1c(F)cccc1-c1ccc(C=C2SC(=S)N(c3cccc(C(=O)O)c3)C2=O)o1 [Compound A143]		11 to 40	

SMILES	IC50 (Dlat IC50 category) [µM]	IC50 [1] [µM]	also measured
CC(C)c1ccc(-c2ccc(C=C3SC(=S)N(c4cccc(C(=O)O)c4)C3=O)o2)cc1 [Compound A46]		< 10	
O=C(O)c1ccc(NN2C(=O)C(=Cc3ccc(-c4ccc(Cl)cc4)o3)SC2=S)cc1 [Compound D21, 4-{5-[5-(4-Chloro-phenyl)-furan-2-ylmethylene]-4-oxo-2-thioxo-thiazolidin-3-ylamino}-benzoic acid]	< 10		
CCCCc1ccc(-c2ccc(C=C3SC(=S)N(C4CCC(C(=O)O)CC4)C3=O)o2)cc1 (centres unmarked) [Compound C78, 4-{5-[1-[5-(4-butyl-phenyl)-furan-2-yl]-methylidene]-4-oxo-2-thioxo-thiazolidin-3-yl}-cyclohexanecarboxylic acid]	< 10		
O=C(O)C(Cc1ccc(O)cc1)N1C(=O)C(=Cc2ccc(-c3cc(C(F)(F)F)ccc3Cl)o2)SC1=S (centres unmarked) [Compound B63]	< 10		
CCc1ccc(-c2ccc(C=C3SC(=S)N(c4cc(C(=O)O)cc(C(F)(F)F)c4)C3=O)o2)cc1 [Compound A225]		11 to 40	
O=C(O)c1cccc(N2C(=O)C(=Cc3ccc(-c4ccccc4F)s3)SC2=S)c1 [Compound A196]		< 10	
CSc1ccc(-c2ccc(C=C3SC(=S)N(C4CCC(C(=O)O)CC4)C3=O)o2)cc1 (centres unmarked) [Compound C65, 4-{5-[1-[5-(4-methylsulfanyl-phenyl)-furan-2-yl]-methylidene]-4-oxo-2-thioxo-thiazolidin-3-yl}-cyclohexanecarboxylic acid]	< 10		
Cc1cc(Cl)ccc1-c1ccc(C=C2SC(=S)N(Nc3ccccc3C(=O)O)C2=O)o1 [Compound D23, 2-{5-[1-[5-(4-chloro-2-methyl-phenyl)-furan-2-yl]-methylidene]-4-oxo-2-thioxo-thiazolidin-3-ylamino}-benzoic acid]	< 10		
O=C(O)c1cccc(N2C(=O)C(=Cc3cccc(-c4ccccc4Cl)n3)SC2=S)c1 [Compound A5]		> 41	
CNS(=O)(=O)c1ccc(-c2ccc(C=C3SC(=S)N(c4cccc(C(=O)O)c4)C3=O)o2)cc1 [Compound A286]		11 to 40	
Cc1ccc(-c2ccc(C=C3SC(=S)N(c4cc(C(=O)O)ccc4F)C3=O)o2)cc1 [Compound A165]		< 10	
O=C(O)c1cccc(N2C(=O)C(=Cc3ccc(-c4c(Cl)cccc4Cl)o3)SC2=S)c1 [Compound A39]		11 to 40	
Cc1ccc(C(=O)O)cc1N1C(=O)C(=Cc2ccc(-c3ccc(Cl)c(Cl)c3)o2)SC1=S [Compound A113]		< 10	
CC(C(=O)O)N1C(=O)C(=Cc2ccc(-c3cccc(C(F)(F)F)c3)o2)SC1=S (centres unmarked) [Compound B100]	< 10		
CCc1ccc(-c2ccc(C=C3SC(=S)N(Nc4ccccc4C(=O)O)C3=O)o2)cc1 [Compound D38, 2-{5-[1-[5-(4-ethyl-phenyl)-furan-2-yl]-methylidene]-4-oxo-2-thioxo-thiazolidin-3-ylamino}-benzoic acid]	< 10		
O=C1C(=Cc2ccc(-c3ccc(Cl)cc3)o2)SC(=S)N1c1cccc(O)c1 [Compound A51]		11 to 40	
O=C(O)C(Cc1ccc(O)c(O)c1)N1C(=O)C(=Cc2ccc(-c3ccc(Cc4ccccc4)cc3)o2)SC1=S (centres unmarked) [Compound B59]	< 10		
O=C(O)c1cc(N2C(=O)C(=Cc3ccc(-c4ccccc4Cl)o3)SC2=S)ccc1F [Compound A255]		11 to 40	
O=C(O)c1cc(N2C(=O)C(=Cc3ccc(-c4ccc(C5CCCCC5)cc4)o3)SC2=S)ccc1O [Compound A57]		< 10	
O=C(O)c1ccc(Cl)c(N2C(=O)C(=Cc3ccc(-c4c(Cl)cccc4Cl)o3)SC2=S)c1 [Compound A110]		< 10	
O=C(O)C1CCCC(N2C(=O)C(=Cc3ccccc3OCc3ccccc3Cl)SC2=S)C1 (centres unmarked) [Compound C33, 3-{5-[2-(2-Chloro-benzyloxy)-benzylidene]-4-oxo-2-thioxo-thiazolidin-3-yl}-cyclohexanecarboxylic acid]	11 to 40		
O=C(O)c1cccc(N2C(=O)C(=Cc3ccc(-c4cc(Cl)ccc4Cl)o3)SC2=S)c1 [Compound A36]		< 10	
CN(C)c1cccc(-c2ccc(C=C3SC(=S)N(c4cccc(C(=O)O)c4)C3=O)o2)c1 [Compound A125]		< 10	
O=C(O)CN1C(=O)C(=Cc2ccc(-c3ccc(Cl)cc3)o2)SC1=S [Compound B60]	11 to 40		
O=C(O)C(Cc1ccc(O)cc1)N1C(=O)C(=Cc2ccc(-c3ccccc3Cl)o2)SC1=S (centres unmarked) [Compound B51]	< 10		
O=C(O)c1ccc(F)c(N2C(=O)C(=Cc3ccc(-c4cccc(-c5ccccc5)c4)o3)SC2=S)c1 [Compound A203]		< 10	
